In patent US8952176B2, “Heterocyclic compound having type I 11 β hydroxysteroid dehydrogenase inhibitory activity” (Shionogi & Co., Ltd., priority 2005, dated 2015):

Columns and labels:
[1] = biological target: recombinant mouse 11β-HSD1 (Mus musculus, UniProt P50172); assay: Enzyme activity assay on mouse 11β-HSD1 (HTRF corticosterone); type: biochemical; details: recombinant mouse 11β-HSD1, 11-dehydrocorticosterone substrate, 2 hours at 37° C.
Procedure: […] (Enzyme Activity Assay on Mouse 11β-HSD1)
Enzymatic activity for mouse 11β-HSD1 activity was determined in a 10 μl final volume of assay mixture containing 50 mM sodium phosphate buffer (pH 7.6), 1 mg/ml bovine serum albumin, 0.042 mg/ml NADPH, 1.26 mg/ml glucose-6-phosphate, glucose-6-phosphate dehydrogenase, test compound, recombinant mouse 11β-HSD1, and […] 11-dehydrocorticosterone as substrate. The reaction was started with the addition of 11-dehydrocorticosterone. After incubation for 2 hours at 37° C., 5 μl of europium cryptate-labelled anti-cortisol antibody and 5 μl of XL665-labeled cortisol were added. After further incubation for 2 hours at room temperature, the HTFR signal was measured. The corticosterone production was quantitated by a standard curve generated with several known concentrations of corticosterone in each assay.
Corticosterone production without compounds was served as control, and the percent inhibition by compound at each concentration was calculated. The IC50 value of the compound for 11β-HSD1 was obtained using the inhibition curve generated by plotting the percent inhibition versus the concentration of test compound.

[2] = biological target: recombinant human 11β-HSD1 (Homo sapiens, UniProt P28845); assay: Enzyme activity assay on human 11β-HSD1 (HTRF cortisol); type: biochemical; details: recombinant human 11β-HSD1, 5 μM cortisone, 2 hours at 37° C.
Procedure: Evaluation of 11β-HSD1 Inhibitors (Enzyme Activity Assay on Human 11β-HSD1)
Enzymatic activity for human 11β-HSD1 was determined in a 10 μl final volume of assay mixture containing 50 mM sodium phosphate buffer (pH 7.6), 1 mg/ml bovine serum albumin, 0.42 mg/ml NADPH, 1.26 mg/ml glucose-6-phosphate, glucose-6-phosphate dehydrogenase, test compound, recombinant human 11β-HSD1, and 5 μM cortisone as substrate. The reaction was started with the addition of cortisone. After incubation for 2 hours at 37° C., 5 μl of europium cryptate-labelled anti-cortisol antibody and 5 μl of XL665-labeled cortisol were added. After further incubation for 2 hours at room temperature, the homogeneous time-resolved fluorescence (HTRF) signal was measured. The cortisol production was quantitated by a standard curve generated with several known concentrations of cortisol in each assay.
The amount of cortisol production without compounds was served as control, and the percent inhibition by test compound at each concentration was calculated. The IC50 value of the compound for 11β-HSD1 was obtained using the inhibition curve generated by plotting the percent inhibition versus the concentration of text compound.

recombinant human 11β-HSD1, sequence (P28845 whole entry): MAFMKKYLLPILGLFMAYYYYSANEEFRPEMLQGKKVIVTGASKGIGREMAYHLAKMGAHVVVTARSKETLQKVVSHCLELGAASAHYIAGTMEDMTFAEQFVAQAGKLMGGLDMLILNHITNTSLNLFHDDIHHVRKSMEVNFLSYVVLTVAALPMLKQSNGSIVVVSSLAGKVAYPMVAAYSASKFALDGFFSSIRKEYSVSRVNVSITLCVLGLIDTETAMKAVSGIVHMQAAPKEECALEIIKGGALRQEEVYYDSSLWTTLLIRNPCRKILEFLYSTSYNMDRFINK
recombinant mouse 11β-HSD1, sequence (P50172 whole entry): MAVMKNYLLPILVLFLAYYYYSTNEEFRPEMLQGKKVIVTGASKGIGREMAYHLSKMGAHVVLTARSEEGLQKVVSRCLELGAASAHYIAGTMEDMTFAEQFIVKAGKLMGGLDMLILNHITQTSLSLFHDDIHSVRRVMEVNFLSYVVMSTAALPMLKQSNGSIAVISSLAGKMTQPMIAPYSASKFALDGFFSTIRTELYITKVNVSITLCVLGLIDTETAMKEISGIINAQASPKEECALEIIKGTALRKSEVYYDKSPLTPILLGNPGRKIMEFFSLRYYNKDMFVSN

Compound | IC50 [1] [µM] | IC50 [2] [µM]
Cc1noc(C(=O)NC23CC4CC(CC(C4)C2)C3)c1Sc1ccccc1 [Compound A-1] | 21 | 0.084
Cc1noc(C(=O)NC23CC4CC(CC(C4)C2)C3)c1SC1CCCCC1 [Compound A-12] | 6 | 0.08
Cc1noc(C(=O)c2ccccc2)c1SC1CCCCC1 [Compound A-15] | 11.6 | 0.016
COc1noc(C(=O)c2ccccc2)c1S(=O)(=O)c1ccccc1 [Compound A-20] | 5.9 | 0.093
Cc1noc(C(=O)NC23CC4CC(CC(C4)C2)C3)c1SC1CCCCCC1 [Compound A-21] | 21 | 0.015
